Our source for the IC50 values is patent US8624022B2, “Substituted aniline derivatives” (UCB Pharma, S.A., priority 2006, dated 2014).

Usually pIC50 stands for the IC50 on a negative log10 scale, so that one unit is a factor of ten.

Test [1] has as its target β-1,3-glucan synthase from Aspergillus fumigatus (Aspergillus fumigatus, UniProt Q4WLT4). The test can be described thus: Glucan synthase assay (membrane preparation). The format is biochemical. Conditions: UDP-[3H]-glucose incorporation, 30° C., 120 minutes, read-out: A. fumigatus Glucan Synth IC50. On the procedure: (§1) The glucan synthase assay follows the incorporation of tritiated UDP-glucose into acid insoluble β-glucan as catalysed by the glucan synthase activity present in membrane preparations from Candida albicans and Aspergillus fumigatus. UDP-[^3H]-glucose (ca 0.01 μCi) is added to 100 μl assay buffer (50 mM Tris-Cl, pH8.0, 8% glycerol, 1 mM EDTA, 1.5 mM KF, 1 mM DTT, 20 μM GTPγS, 600 μM UDP-glucose) and the reaction initiated by the addition of 2.5 μl of enzyme preparation.
(§2) After incubation at 30° C. for 120 minutes, 10 μl of 30 mg/ml BSA is added with mixing and the reaction is terminated with 110 μl ice-cold 20% TCA. The precipitate is collected on a GF/B filter plate and washed three times with 200 μl water. Once dry, 200 μl of Microscint20 is added to each well and the plate is read on a Top-count scintillation counter.

In test [2] the target is β-1,3-glucan synthase from Candida albicans (Candida albicans, UniProt O13428). The test is described as follows: Glucan synthase assay (membrane preparation). The format is biochemical. Conditions: UDP-[3H]-glucose incorporation, 30° C., 120 minutes, read-out: C. albicans Glucan Synth IC50. The procedure: as §1, §2
β-1,3-glucan synthase from Candida albicans, sequence (O13428 1-1897): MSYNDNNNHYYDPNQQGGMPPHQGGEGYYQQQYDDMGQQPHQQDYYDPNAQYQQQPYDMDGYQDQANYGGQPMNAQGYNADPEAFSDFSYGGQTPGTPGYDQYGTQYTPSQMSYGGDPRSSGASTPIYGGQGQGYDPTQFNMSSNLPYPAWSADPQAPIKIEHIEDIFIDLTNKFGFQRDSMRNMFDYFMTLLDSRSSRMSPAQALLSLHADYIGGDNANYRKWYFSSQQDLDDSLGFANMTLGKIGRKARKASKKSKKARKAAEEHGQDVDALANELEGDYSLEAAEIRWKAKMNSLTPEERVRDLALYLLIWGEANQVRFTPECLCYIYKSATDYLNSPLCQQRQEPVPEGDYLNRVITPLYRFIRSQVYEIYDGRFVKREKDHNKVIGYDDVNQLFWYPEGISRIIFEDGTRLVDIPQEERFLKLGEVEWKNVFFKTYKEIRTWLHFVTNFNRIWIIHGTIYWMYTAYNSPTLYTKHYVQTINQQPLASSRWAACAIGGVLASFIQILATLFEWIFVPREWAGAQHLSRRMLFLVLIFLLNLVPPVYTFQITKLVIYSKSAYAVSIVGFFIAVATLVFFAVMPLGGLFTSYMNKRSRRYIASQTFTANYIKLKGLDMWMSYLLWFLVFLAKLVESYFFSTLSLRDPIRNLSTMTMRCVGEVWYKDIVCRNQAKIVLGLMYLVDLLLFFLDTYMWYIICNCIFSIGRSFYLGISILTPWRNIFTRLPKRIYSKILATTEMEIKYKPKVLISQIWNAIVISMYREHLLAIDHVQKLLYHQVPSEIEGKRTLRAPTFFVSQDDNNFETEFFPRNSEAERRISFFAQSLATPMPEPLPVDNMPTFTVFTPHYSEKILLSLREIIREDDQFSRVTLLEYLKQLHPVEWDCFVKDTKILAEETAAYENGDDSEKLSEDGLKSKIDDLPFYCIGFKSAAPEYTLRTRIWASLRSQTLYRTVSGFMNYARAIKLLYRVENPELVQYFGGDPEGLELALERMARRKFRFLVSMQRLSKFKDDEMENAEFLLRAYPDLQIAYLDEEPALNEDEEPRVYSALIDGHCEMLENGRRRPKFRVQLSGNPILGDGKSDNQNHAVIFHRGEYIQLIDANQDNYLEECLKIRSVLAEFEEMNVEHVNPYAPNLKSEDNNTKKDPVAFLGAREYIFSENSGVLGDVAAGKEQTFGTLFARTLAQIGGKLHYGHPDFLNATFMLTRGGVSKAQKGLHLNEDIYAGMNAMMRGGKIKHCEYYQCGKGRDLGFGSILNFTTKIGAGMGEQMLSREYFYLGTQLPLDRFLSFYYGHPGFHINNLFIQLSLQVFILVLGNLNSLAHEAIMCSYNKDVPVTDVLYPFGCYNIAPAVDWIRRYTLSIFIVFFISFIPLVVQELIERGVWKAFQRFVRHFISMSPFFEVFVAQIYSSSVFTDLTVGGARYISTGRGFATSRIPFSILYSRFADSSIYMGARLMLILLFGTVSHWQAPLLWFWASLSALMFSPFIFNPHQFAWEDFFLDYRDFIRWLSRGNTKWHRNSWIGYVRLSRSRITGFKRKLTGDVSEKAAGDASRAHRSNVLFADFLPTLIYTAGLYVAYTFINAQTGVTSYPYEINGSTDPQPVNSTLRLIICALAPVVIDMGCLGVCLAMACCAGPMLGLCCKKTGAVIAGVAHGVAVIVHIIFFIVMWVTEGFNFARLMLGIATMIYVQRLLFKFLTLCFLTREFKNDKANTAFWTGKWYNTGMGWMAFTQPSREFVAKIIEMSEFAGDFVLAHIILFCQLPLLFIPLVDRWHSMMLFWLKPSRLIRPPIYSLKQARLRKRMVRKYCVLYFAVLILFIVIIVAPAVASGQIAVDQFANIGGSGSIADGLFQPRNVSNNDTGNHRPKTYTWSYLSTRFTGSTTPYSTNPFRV
The test system of the next test is Aspergillus fumigatus. The test can be described thus: Proliferation assay (growth, OD600nm). Conditions: whole organism growth, OD600nm over 6 hours at 25° C. The format is cell-based. On the procedure:
(§3) Overnight cultures of organism were diluted back to an OD600nm of 0.1 in fresh media. Test compounds were added in a final concentration of 0.5% DMSO and the OD600nm was followed over 6 hours incubation at 25° C. Compounds described herein were screened to determine their activity as inhibitors of β-1,3-glucan synthase from Candida albicans and Aspergillus fumigatus and for their ability to inhibit the growth of Candida albicans and Aspergillus fumigatus whole organisms.

A further test has as its system Candida albicans. The test can be described thus: Proliferation assay (growth, OD600nm). Type of test: cell-based. Conditions: whole organism growth, OD600nm over 6 hours at 25° C. The procedure: as §3

pIC50: −log10 of the molar value.

β-1,3-glucan synthase from Aspergillus fumigatus, sequence (Q4WLT4 1-1904): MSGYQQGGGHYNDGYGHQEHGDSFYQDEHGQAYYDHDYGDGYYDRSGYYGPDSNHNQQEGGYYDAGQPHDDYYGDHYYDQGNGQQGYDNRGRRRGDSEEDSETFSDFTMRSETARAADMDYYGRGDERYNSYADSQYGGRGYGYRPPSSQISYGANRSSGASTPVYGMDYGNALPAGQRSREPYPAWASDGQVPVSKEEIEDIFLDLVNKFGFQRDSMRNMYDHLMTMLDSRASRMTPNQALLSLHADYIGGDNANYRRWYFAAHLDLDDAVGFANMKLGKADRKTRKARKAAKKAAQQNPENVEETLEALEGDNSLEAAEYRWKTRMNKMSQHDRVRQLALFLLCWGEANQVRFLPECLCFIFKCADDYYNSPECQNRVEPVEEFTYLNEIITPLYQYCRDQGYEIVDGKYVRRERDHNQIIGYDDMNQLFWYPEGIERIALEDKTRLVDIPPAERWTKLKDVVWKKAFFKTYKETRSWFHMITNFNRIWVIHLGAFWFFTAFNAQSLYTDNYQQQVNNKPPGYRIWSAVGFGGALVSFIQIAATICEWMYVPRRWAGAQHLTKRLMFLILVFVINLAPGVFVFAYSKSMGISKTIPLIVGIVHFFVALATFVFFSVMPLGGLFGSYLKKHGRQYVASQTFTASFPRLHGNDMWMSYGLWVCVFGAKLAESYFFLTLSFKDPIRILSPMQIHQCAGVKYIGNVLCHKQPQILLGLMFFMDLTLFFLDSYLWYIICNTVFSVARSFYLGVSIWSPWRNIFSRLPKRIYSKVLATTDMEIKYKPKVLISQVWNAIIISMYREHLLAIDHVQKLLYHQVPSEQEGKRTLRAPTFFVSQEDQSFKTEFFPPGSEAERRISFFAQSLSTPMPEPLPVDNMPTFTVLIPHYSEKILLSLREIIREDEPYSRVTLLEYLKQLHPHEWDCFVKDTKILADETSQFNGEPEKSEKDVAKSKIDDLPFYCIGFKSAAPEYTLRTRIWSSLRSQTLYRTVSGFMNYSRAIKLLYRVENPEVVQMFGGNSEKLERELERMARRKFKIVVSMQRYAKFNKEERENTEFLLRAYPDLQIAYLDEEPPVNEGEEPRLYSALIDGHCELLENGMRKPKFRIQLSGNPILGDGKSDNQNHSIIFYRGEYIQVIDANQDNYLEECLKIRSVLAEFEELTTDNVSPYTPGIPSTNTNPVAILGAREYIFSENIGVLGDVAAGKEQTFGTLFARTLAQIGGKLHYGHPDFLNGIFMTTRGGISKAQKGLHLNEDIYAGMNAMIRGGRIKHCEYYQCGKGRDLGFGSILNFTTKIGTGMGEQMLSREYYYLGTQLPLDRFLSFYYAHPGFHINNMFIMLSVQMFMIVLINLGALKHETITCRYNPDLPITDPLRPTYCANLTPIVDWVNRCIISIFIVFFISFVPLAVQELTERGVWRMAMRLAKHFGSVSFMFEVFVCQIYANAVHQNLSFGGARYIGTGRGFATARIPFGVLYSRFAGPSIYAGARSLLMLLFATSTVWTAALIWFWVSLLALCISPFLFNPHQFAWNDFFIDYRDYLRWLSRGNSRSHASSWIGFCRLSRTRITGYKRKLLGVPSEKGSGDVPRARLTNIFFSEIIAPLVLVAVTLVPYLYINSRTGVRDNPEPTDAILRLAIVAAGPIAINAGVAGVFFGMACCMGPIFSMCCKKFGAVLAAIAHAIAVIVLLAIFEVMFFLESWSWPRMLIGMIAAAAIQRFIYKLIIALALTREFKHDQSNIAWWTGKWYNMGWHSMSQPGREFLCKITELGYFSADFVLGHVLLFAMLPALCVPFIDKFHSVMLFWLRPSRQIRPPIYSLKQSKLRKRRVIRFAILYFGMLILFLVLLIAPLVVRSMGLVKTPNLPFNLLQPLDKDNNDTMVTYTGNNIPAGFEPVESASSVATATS

Consider `N[C@H]1CCN(C(=O)CN(CC(=O)NCc2cccc(Cl)c2)c2ccccc2Oc2ccccc2)C1` [OGT3935, 2-[[2-((S)-3-Aminopyrrolidin-1-yl)-2-oxo-ethyl]-(2-phenoxyphenyl)amino]-N-(3-chlorobenzyl)acetamide], for which the pIC50 in test [1] was 4.42; in test [2], 4.92; with Aspergillus fumigatus, 4.03; with Candida albicans, 4.26.
Turning to `N[C@H]1CCN(C(=O)CN(CC(=O)NCc2cccc(Cl)c2)c2ccc(Oc3ccccc3)cc2)C1` [OGT4154, 2-[[2-((S)-3-Aminopyrrolidin-1-yl)-2-oxo-ethyl]-(4-phenoxyphenyl)amino]-N-(3-chlorobenzyl)acetamide], the pIC50 with Aspergillus fumigatus is 4.92; with Candida albicans, 4.66.
With `N[C@H]1CCN(C(=O)CN(CC(=O)NCc2cc(F)cc(C(F)(F)F)c2)c2ccc(Oc3ccccc3)cc2)C1` [OGT4155, 2-[[2-((S)-3-Aminopyrrolidin-1-yl)-2-oxo-ethyl]-(4-phenoxyphenyl)amino]-N-[3-fluoro-5-(trifluoromethyl)benzyl]acetamide], the pIC50 in test [1] is 5.28; in test [2] it was 5.27; in the test on Aspergillus fumigatus, 4.85; with Candida albicans, 4.77.
Take `N[C@H]1CCN(C(=O)CN(CC(=O)NCc2cc(C(F)(F)F)cc(C(F)(F)F)c2)c2cccc(Oc3ccccc3)c2)C1` [OGT4165, 2-[[2-((S)-3-Aminopyrrolidin-1-yl)-2-oxo-ethyl]-(3-phenoxyphenyl)amino]-N-[3,5-bis-(trifluoromethyl)benzyl]acetamide]: the pIC50 in test [1] was 5.21; in test [2] it was 5.57; with Aspergillus fumigatus, 4.37; in the test with Candida albicans, 4.72.
Consider `N[C@H]1CCN(C(=O)CN(C(=O)/C=C/c2ccccc2)c2ccc(-c3cccc(OC(F)(F)F)c3)cc2)C1` [OGT4325, (E)-N-[2-((S)-3-Aminopyrrolidin-1-yl)-2-oxo-ethyl]-3-phenyl-N-(3′-trifluoromethoxy-biphenyl-4-yl)-acrylamide], for which the pIC50 in test [1] was 4.81; in test [2], 5.07; in the test on Candida albicans, 5.10.
Take `N[C@H]1CCN(C(=O)CN(C(=O)/C=C/c2ccccc2)c2ccc(Oc3ccccc3)cc2)C1` [OGT4344, (E)-N-[2-((S)-3-Aminopyrrolidin-1-yl)-2-oxo-ethyl]-N-(4-phenoxyphenyl)-3-phenylacrylamide]: the pIC50 in test [1] is 4.31; in test [2], 4.47; in the test on Aspergillus fumigatus, 4.92; in the test with Candida albicans, 4.57.
`CCOC(=O)c1cccc(-c2ccc(N(CC(=O)N3CC[C@H](N)C3)C(=O)/C=C/c3ccccc3)cc2)c1` [OGT4355, 4′-{[2-((S)-3-Aminopyrrolidin-1-yl)-2-oxo-ethyl]-[(E)-(3-phenylacryloyl)]-amino}-biphenyl-3-carboxylic acid, ethyl ester]: the pIC50 was 5.40 in the test on Aspergillus fumigatus and 4.74 in the test on Candida albicans.
